Test results published in patent US7812015B2, “Prophylaxis and treatment of infectious diseases” (priority 2002, dated 2010).
Read-outs that look alike come from different tables or passages of the source.

Experiments:
rhinovirus strain 14 = assay: Infection of Hela epithelial cells with rhinovirus strain 14, cytotoxic effect by flow cytometry after FITC-annexin staining; assay type: cell-based, human; conditions: rhinovirus strain 14, 24 h, drug added in serum-free medium 30 min before infection
Description: (§1) This was shown for Hela cells as example. […] Means±standard deviation for three experiments are shown. […] This is depicted in FIG. 2. […] Means±standard deviation of three experiments are depicted. […] 2. Infection with HIV

[1] = biological target: T1, acid sphingomyelinase (ASM) (Homo sapiens, UniProt P17405); assay: Acid sphingomyelinase activity in lysates of Hela cells infected with rhinovirus strain 14 ([14C]sphingomyelin assay); assay type: cell-based; conditions: rhinovirus strain 14, MOI 25, preincubation with inhibitor
T1 construct: endogenous in cells; host or cells: HeLa cells infected with rhinovirus strain 14
T1 sequence (P17405 47-631): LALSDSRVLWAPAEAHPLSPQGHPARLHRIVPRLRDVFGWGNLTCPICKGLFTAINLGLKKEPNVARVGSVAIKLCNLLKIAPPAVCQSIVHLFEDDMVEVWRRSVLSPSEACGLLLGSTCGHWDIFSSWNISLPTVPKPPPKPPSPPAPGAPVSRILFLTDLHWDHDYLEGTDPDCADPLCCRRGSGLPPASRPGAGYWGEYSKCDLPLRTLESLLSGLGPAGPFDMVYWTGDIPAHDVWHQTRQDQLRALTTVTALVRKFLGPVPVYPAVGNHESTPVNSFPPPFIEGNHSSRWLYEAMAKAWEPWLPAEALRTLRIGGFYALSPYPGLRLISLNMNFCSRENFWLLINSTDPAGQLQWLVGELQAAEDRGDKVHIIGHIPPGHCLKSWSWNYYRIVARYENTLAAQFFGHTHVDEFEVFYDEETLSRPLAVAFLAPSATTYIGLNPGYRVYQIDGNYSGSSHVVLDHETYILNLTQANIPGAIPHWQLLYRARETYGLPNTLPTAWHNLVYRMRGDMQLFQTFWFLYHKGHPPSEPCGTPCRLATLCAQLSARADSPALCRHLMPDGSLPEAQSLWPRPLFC
Experimental: (§2) The cells were infected with rhinoviruses (strain 14, MOI 25), and the sphingomyelinase activity in cell lysates was measured. For this purpose, the cells were washed after the infection, taken up in 250 mM sodium acetate (pH 5.0), 1.3 mM EDTA and 0.05% NP40, disrupted by ultrasound treatment with a sonicator probe at low energy, and incubated with [^14C]sphingomyelin (0.5 μCi/sample, 54.5 mCi/mmol; NEN) for 30 min The in vitro enzyme assay was stopped by adding 800 μl of a 2:1 column mixture of CHCl3 and CH3OH (v/v) and 200 μl of H2O, and the liberation of [^14C]phosphorylcholine into the aqueous supernatant was measured by scintigraphy after organic extraction. […] Hela cells were again infected with rhinoviruses (strain 14) for this purpose. Ceramide was measured by a diacylglycerol (DAG) kinase assay (Grassme et al., Cell 91, 605-615, 1997). Ceramide was converted into [^32P]-ceramide by adding DAG kinase and [^32P]γATP. The phosphorylated ceramide was fractionated by thin layer chromatography and determined by scintigraphy. […] Infection of human epithelial cells by rhinoviruses was measured in flow cytometric analyses of the cytopathic effect of the viruses. […] 2.

ceramide = assay: Ceramide liberation in rhinovirus-infected Hela cells (DAG kinase assay); assay type: cell-based, human; conditions: Hela cells infected with rhinovirus strain 14, preincubation
Description: as §1

[2] = system: rhinovirus strains (RV14, RV16); assay: Infection of Hela epithelial cells with various rhinovirus strains, cytotoxic effect by FITC-annexin flow cytometry; assay type: cell-based, human; conditions: RV14 and RV16, 24 h, drug added in serum-free medium 30 min before infection
Description: as §1

Hela epithelial cells = system: Hela epithelial cells
Experimental: as §2

**Q.** Which “inhibition of viral infection (cytotoxic effect of the virus)” value (rhinovirus strain 14) does the source give for `CN(C)CCC=C1c2ccccc2CCc2ccccc21` [amitryptiline] here?
**A.** almost completely inhibits the viral infection

**Q.** And the “activity of acid sphingomyelinase after preincubation of the cells” value [1]?
**A.** blocks the activity of acid sphingomyelinase

**Q.** And the “liberation of ceramide after preincubation of the cells” value (ceramide)?
**A.** abolishes the liberation of ceramide

**Q.** And the “inhibition of viral infection (cytotoxic effect of the viruses)” value [2]?
**A.** almost completely inhibit the viral infection

**Q.** And the “cytotoxic effect of the drug itself on the cells” value (Hela epithelial cells; Hela cells)?
**A.** no cytotoxic effect

**Q.** What does the source list for `CN(C)CCCN1c2ccccc2CCc2ccccc21` [imipramine]?
**A.** inhibition of viral infection (cytotoxic effect of the virus) (rhinovirus strain 14): almost completely inhibits the viral infection; inhibition of viral infection (cytotoxic effect of the viruses) [2]: almost completely inhibit the viral infection; cytotoxic effect of the drug itself on the cells (Hela epithelial cells): no cytotoxic effect
